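Interpolation was linear, between the two tested concentrations surrounding the appropriate level; five concentrations were tested over 48 hours in 96-well plates. GI50 marks 50% less growth.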 Active and inactive are the calls of the source. Rule as the data show it: active = GI50 up to about 1.1 µM and inactive = higher.
Tests used:
Test in all cases: NCI tumour cell line growth inhibition, 48 h
OVCAR-3 = tested on: OVCAR-3
SK-MEL-28 = tested on: SK-MEL-28
HCT-116 = tested on: HCT-116
SNB-75 = tested on: SNB-75
NCI-H460 = tested on: NCI-H460
SF-295 = tested on: SF-295
K562 = tested on: K562
OVCAR-4 = tested on: OVCAR-4
HOP-62 = tested on: HOP-62
TK-10 = tested on: TK-10
HL-60 = tested on: HL-60
SW-620 = tested on: SW-620
OVCAR-8 = tested on: OVCAR-8
IGROV-1 = tested on: IGROV-1
SK-MEL-5 = tested on: SK-MEL-5
SR = tested on: SR

Measured: GI50

O=C1CC(c2c[nH]c3ccccc23)C(=O)N1c1ccccc1 (stereo unspecified)
inactive: OVCAR-3 > 100 µM | SK-MEL-28 > 100 µM | HCT-116 > 100 µM | SNB-75 > 100 µM | NCI-H460 > 100 µM | SF-295 > 100 µM | K562 > 100 µM | OVCAR-4 > 100 µM | HOP-62 > 100 µM | TK-10 > 100 µM | HL-60 > 100 µM | SW-620 > 100 µM | OVCAR-8 > 100 µM | IGROV-1 > 100 µM | SK-MEL-5 > 100 µM

O=C(Nc1cccc2c1C(=O)c1c(NC(=O)c3ccccc3)ccc(Nc3cccc4c3C(=O)c3ccccc3C4=O)c1C2=O)c1ccccc1
inactive: OVCAR-3 > 100 µM | SK-MEL-28 > 100 µM | HCT-116 > 100 µM | SNB-75 70.3 µM | NCI-H460 > 100 µM | K562 > 100 µM | OVCAR-4 > 100 µM | HOP-62 > 100 µM | TK-10 > 100 µM | HL-60 > 100 µM | SR > 100 µM | SW-620 > 100 µM | OVCAR-8 > 100 µM | IGROV-1 > 100 µM | SK-MEL-5 > 100 µM

N#CCCN(c1ccc(-c2nnc(NC(=O)CNNC(=O)CC(=O)Nc3ccccc3)s2)cc1)S(=O)(=O)c1ccccc1
inactive: OVCAR-3 52.6 µM | SK-MEL-28 > 100 µM | HCT-116 71.1 µM | SNB-75 29 µM | NCI-H460 > 100 µM | SF-295 > 100 µM | K562 49.2 µM | OVCAR-4 53.2 µM | HOP-62 > 100 µM | TK-10 > 100 µM | HL-60 39.4 µM | SW-620 > 100 µM | OVCAR-8 > 100 µM | IGROV-1 > 100 µM | SK-MEL-5 52.1 µM

Cc1nc(-n2nc(-c3ccccc3)cc2-c2ccccc2)sc1C(=O)/C=C/c1ccc(/C=C/C(=O)c2sc(-n3nc(-c4ccccc4)cc3-c3ccccc3)nc2C)cc1
inactive: OVCAR-3 20.8 µM | SK-MEL-28 19.5 µM | HCT-116 19.8 µM | NCI-H460 29 µM | SF-295 23.9 µM | K562 30.3 µM | OVCAR-4 35.2 µM | HOP-62 23.6 µM | TK-10 34.1 µM | HL-60 32.9 µM | SR 27.2 µM | SW-620 34.8 µM | OVCAR-8 32.8 µM | IGROV-1 15.2 µM

CCOC(=O)CCCO
inactive: OVCAR-3 > 100 µM | SK-MEL-28 > 100 µM | HCT-116 > 10 µM | SNB-75 71.3 µM | NCI-H460 > 100 µM | SF-295 > 100 µM | K562 > 100 µM | TK-10 > 100 µM | HL-60 > 100 µM | SR > 100 µM | SW-620 > 100 µM | OVCAR-8 > 100 µM | IGROV-1 > 100 µM | SK-MEL-5 > 100 µM

O=C(c1nc2ccccc2nc1O)C(O)c1ccco1 (stereo unspecified)
inactive: OVCAR-3 > 100 µM | SK-MEL-28 > 100 µM | HCT-116 > 100 µM | SNB-75 45.8 µM | NCI-H460 > 100 µM | SF-295 > 100 µM | K562 > 100 µM | OVCAR-4 > 100 µM | HOP-62 > 100 µM | TK-10 > 100 µM | HL-60 > 100 µM | SW-620 > 100 µM | OVCAR-8 > 100 µM | IGROV-1 > 100 µM | SK-MEL-5 64.1 µM

O=[N+]([O-])c1ccc(C(O)/C(=N/O)c2nc3ccc(Cl)cc3nc2O)cc1 (stereo unspecified)
inactive: HCT-116 > 100 µM | SNB-75 > 100 µM | NCI-H460 > 100 µM | SF-295 > 100 µM | K562 > 100 µM | OVCAR-4 > 100 µM | HOP-62 > 100 µM | TK-10 > 100 µM | HL-60 > 100 µM | SR > 100 µM | SW-620 > 100 µM | OVCAR-8 > 100 µM | IGROV-1 > 100 µM | SK-MEL-5 > 100 µM

O=C1CCC2(CCC(=O)NC2=O)C(=O)N1
inactive: OVCAR-3 > 100 µM | SK-MEL-28 > 100 µM | HCT-116 > 100 µM | NCI-H460 > 100 µM | SF-295 > 100 µM | K562 > 100 µM | HOP-62 > 100 µM | TK-10 > 100 µM | HL-60 > 100 µM | SR > 100 µM | SW-620 > 100 µM | OVCAR-8 > 100 µM | IGROV-1 > 100 µM | SK-MEL-5 > 100 µM

CCOC(=O)/C([O-])=C(\C(=O)OCC)[n+]1c(C)n(C)c2ccccc21
inactive: OVCAR-3 > 100 µM | SK-MEL-28 > 100 µM | HCT-116 > 100 µM | SNB-75 > 100 µM | NCI-H460 > 100 µM | SF-295 > 100 µM | K562 > 100 µM | OVCAR-4 > 100 µM | HOP-62 > 100 µM | TK-10 > 100 µM | HL-60 > 100 µM | SW-620 > 100 µM | OVCAR-8 > 100 µM | IGROV-1 > 100 µM | SK-MEL-5 > 100 µM

From ChEMBL document CHEMBL1201862, “PubChem BioAssay data set” (2004)
